The conditions of data set [1]: human, in vivo. From the text: The purpose of this study is to quantify plasma and urinary acetyl-PAH as a measure of tubular function, in the presence of simultaneous measurement of GFR (iothalamate clearance) in healthy subjects. […] Subjects receiving drugs known to interfere with tubular secretion based on a current review of available literature, or a history of known allergic or adverse reactions to diagnostic iodine containing compounds including iothalamate, or PAH were excluded. Subjects with preexisting liver disease (including hepatitis), increased INR, liver transaminases (AST/ALT), bilirubin, serum albumin<3.0 g/dL. Iothalamate (Conray®, Mallinkrodt), and PAH (Merck) infusions were prepared on the morning of the study visit.
On the study day, each subject reported to the General Clinical Research Unit (GCRC) by 8:00 AM on study visit days. A 6-mL blood sample was be obtained for biochemistries (BUN, serum creatinine) and a spot urine sample was obtained for protein:creatinine ratio. Vital signs (heart rate, blood pressure, respiratory rate) were recorded half-hourly throughout each study visit. Subjects had intravenous catheters inserted into forearm veins of each arm for blood collection and intravenous infusion of iothalamate and PAH. […]
Throughout the study, all blood samples were collected in heparinized (green top) tubes, placed on ice immediately, centrifuged within 15 minutes (4,000 RPM), split into 2 plasma aliquots and frozen at −20° C. until analyzed. […] Urine was be placed on ice immediately after collection, and three 8 mL aliquots were frozen at −20° C. until analyzed. The total volume of urine was measured for each collection interval. A 5 mL aliquot of each IV infusate was collected and frozen at −20° C. until analyzed.
Iothalamate and PAH: Iothalamate and PAH concentrations in plasma and urine will be determined using an HPLC assay method developed in our laboratory. […] Separation is achieved using a C18 column, and effluent is monitored at a wavelength of 254 ηm. […]

A further data set deals with HK-2 cells. Briefly: PAH metabolism experiment in HK-2 cells (acetyl-PAH formation quantified by HPLC). The class given is in vitro ADME, human. As for the experimental part: Acetyl-PAH was quantified by HPLC using a Waters 2690 Separation Module. […] The runtime was 25 minutes for all samples.
HK2 cells were grown in 15 ml of Dulbecco's Modified Eagle Medium (DMEM)/F12 media with 10% Fetal Bovine Serum (FBS) and incubated at 37° C. with 5% CO2. After 5 days of culture, each 75 cm^2 flask of cells was transferred to 2 mls of the culture media and incubated with 200 μg/ml of PAH except for the negative control where no PAH was added. Cells were incubated for 4, 8 and 18 hours each (in triplicate) with or without PAH (control). Cells post incubation were lysed via sonication for 1 minute, then centrifuged at 14,000 RPM for 10 minutes. The supernatant was extracted and acetyl-PAH was quantified by HPLC. After 5 days of culture, the HK2 cell monolayers reached confluence (FIG. 1).
• 1. HK2 cells were grown in 15 ml of Dulbecco's Modified Eagle Medium (DMEM)/F12 media with 10% Fetal Bovine Serum (FBS) and incubated at 37° C. with 5% CO2. […]
Acetyl-PAH was quantified by HPLC using a Waters 2690 Separation Module. […] Quantification of acetyl-PAH formation was determined by calculating the area under the curve for each sample time-point, and determining the cumulative appearance over the entire incubation period (up to 18 hours).

For data set [2] the following is noted: dogs with azotemia, p=0.025; cited from earlier work.

Regarding `Nc1ccc(C(=O)NCC(=O)O)cc1` [PAH, Para-aminohippuric acid], the “Rsec (total rate of tubular secretion)” value in data set [1] was 382 ± 154 mL/min. In addition, the “metabolism of PAH to acetyl-PAH” value in the data set on HK-2 cells (HK2 cells, 200 μg/ml PAH, 4, 8 and 18 hours) is recorded as “time dependent fashion”. In data set [2], the renal extraction is reported as 0.57.

With `CC[N+](CC)(CC)CC` [TEA, tetraethylammonium], the renal extraction in data set [2] is 0.80.

For `CC(=O)Nc1ccc(C(=O)NCC(=O)O)cc1` [acetyl-PAH, 2-[(4-acetamidobenzoyl)amino]acetic acid], in data set [1], the “Rsec (total rate of tubular secretion)” value was 581 ± 191 mL/min; the “appearance of acetyl-PAH metabolite in urine and plasma” value is “appears in high quantities in the urine and plasma”. Moreover, the “mean (±SD) naPAH metabolite concentration” value in the data set on HK-2 cells (HK-2 cells incubated with PAH, HPLC) is listed as “increased over time”.
